# pIC50: −log10 of the molar value.
# Target: recombinant human CYP17 enzyme (Homo sapiens (Human), UniProt P05093)
# Test: Cytochrome P450, 17-20 lyase (CYP17-lyase) assay, tritiated acetic acid release from 17-α-hydroxy pregnenolone [21-3H]
# Assay type: biochemical
# Details: human CYP17, substrate 0.25 μM; read-out: Lyase IC 50 nM Human/Rat (Human)
# Text: Assay method was adopted from a published protocol with some modifications to suit our requirements (Dmitry N Grigoryev et al, Analytical Biochemistry, (1999) 267, 319-330). […] Chloroform extraction removes the radioactive steroids and acetic acid is taken into aqueous layer. The tritiated acetic acid released in the assay thus extracted is quantified to determine the enzyme activity. […] The purified cell membrane preparations were used as the source for Human CYP17 enzyme. […] O, Nijar, et al., J Med Chem, (1998) 41, 902-912). […] Km for this substrate was determined by monitoring the tritiated acetic acid release as a function of substrate concentration. […] For the Km determination, the data was fit to a hyperbolic equation (Graphpad Prism® software IV). […] (Dmitry N. Grigoryev et al, Analytical Biochemistry (1999) 267, 319-330) […] NADPH is used at a final concentration of 4.2 mM. Total reaction volume was made up to 50 μL with 50 mM Phosphate buffer pH 7.5. The reaction mixture was incubated at room temperature for 90 minutes with gentle shaking. The reaction was stopped by the addition of 100 μL of buffer. 500 μL of 5% freshly prepared activated charcoal was added to the solution and mixed well by vortexing. The samples were centrifuged at 17568×g for 5 minutes. (14000 rpm). The supernatant was carefully transferred to fresh tube and 1.3 mL of scintillation fluid was added, mixed by vortexing. The radioactivity was measured in a 1450 MicroBeta TriLux™ scintillation counter from Wallac-Perkin Elmer®, USA. The measurements were carried out in 2.0 mL Eppendorforf™ tubes. […] The amount of tritiated acetic acid released is proportional to the lyase activity. Percent lyase activity in presence of inhibitor was calculated using the formula given below. […] Enzyme reaction in presence of inhibitor. • Positive control: […] For IC50 determination, the % inhibition was plotted as a function of inhibitor concentration. The data was fitted to sigmoidal equation using Graphpad Prism® software IV to generate IC50 values.
# Chain of recombinant human CYP17 enzyme (P05093 whole entry): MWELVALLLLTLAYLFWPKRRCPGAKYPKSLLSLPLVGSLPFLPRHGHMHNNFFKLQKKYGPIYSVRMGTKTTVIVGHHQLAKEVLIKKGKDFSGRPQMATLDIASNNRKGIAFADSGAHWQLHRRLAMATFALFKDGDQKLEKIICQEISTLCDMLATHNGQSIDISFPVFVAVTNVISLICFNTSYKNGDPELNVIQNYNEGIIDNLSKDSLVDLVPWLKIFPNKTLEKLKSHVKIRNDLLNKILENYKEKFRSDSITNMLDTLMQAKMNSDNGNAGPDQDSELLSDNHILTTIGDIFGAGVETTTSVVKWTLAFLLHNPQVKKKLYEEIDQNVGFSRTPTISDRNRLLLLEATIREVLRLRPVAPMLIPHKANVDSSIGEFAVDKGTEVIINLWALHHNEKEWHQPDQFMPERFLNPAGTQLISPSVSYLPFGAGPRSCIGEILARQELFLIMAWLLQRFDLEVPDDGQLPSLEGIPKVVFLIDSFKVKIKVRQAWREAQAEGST
row,IC50 [nM],SMILES
1,27,"Cc1ccncc1N1CCN(c2ccc(F)c(F)c2)C1=O [Example 45A, 1-(3,4-Difluoro-phenyl)-3-(4-methyl-pyridin-3-yl)-imidazolidin-2-one]"
2,94,"Cc1ccncc1N1CCN(c2ccc3[nH][nH]c(=O)c3c2)C1=O [Example 117A, 5-[3-(4-Methyl-pyridin-3-yl)-2-oxo-imidazolidin-1-yl]-1,2-dihydro-indazol-3-one]"
3,19,"Cc1ccncc1N1CCN(c2ccc(F)c(C#N)c2)C1=O [Example 103A, 2-Fluoro-5-[3-(4-methyl-pyridin-3-yl)-2-oxo-imidazolidin-1-yl]-benzonitrile]"
4,25,"Cc1ccncc1N1CCN(c2ccnc(C(F)(F)F)c2)C1=O [Example 148A, 1-(4-Methyl-pyridin-3-yl)-3-(2-trifluoromethyl-pyridin-4-yl)-imidazolidin-2-one]"
5,2.5,"Cc1ccncc1N1CCN(c2ccc3cn[nH]c3c2)C1=O [Example 121A, 1-(1H-Indazol-6-yl)-3-(4-methyl-pyridin-3-yl)-imidazolidin-2-one]"
6,82,"Cc1ccncc1N1CCN(c2ccc3c(C4CC4)n[nH]c3c2)C1=O [Example 161A, 1-(3-Cyclopropyl-1H-indazol-6-yl)-3-(4-methylpyridin-3-yl)imidazolidin-2-one]"
7,9.3,"Cc1ccncc1N1CCN(c2csc(C(F)F)c2)C1=O [Example 78A, 1-(5-Difluoromethyl-thiophen-3-yl)-3-(4-methyl-pyridin-3-yl)-imidazolidin-2-one]"
8,950,"Cc1ccncc1N1CCN(c2ccc3c(ccn3C)c2)C1=O [Example 134A, 1-(1-Methyl-1H-indol-5-yl)-3-(4-methyl-pyridin-3-yl)-imidazolidin-2-one]"
9,136,"COc1ccc(N2CCN(c3cnccc3C)C2=O)cc1F [Example 53A, 1-(3-Fluoro-4-methoxy-phenyl)-3-(4-methyl-pyridin-3-yl)-imidazolidin-2-one]"
10,2.7,"Cc1ccncc1N1CCN(c2ccc(C(F)(F)F)s2)C1=O [Example 155A, 1-(4-Methylpyridin-3-yl)-3-(5-(trifluoromethyl)thiophen-2-yl)-imidazolidin-2-one]"
11,76,"COc1cc(N2CCN(c3cnccc3C)C2=O)ccc1F [Example 74A, 1-(4-Fluoro-3-methoxy-phenyl)-3-(4-methyl-pyridin-3-yl)-imidazolidin-2-one]"
12,10,"Cc1ccncc1N1CCN(c2ccc(F)c(Cl)c2)C1=O [Example 46A, 1-(3-Chloro-4-fluoro-phenyl)-3-(4-methyl-pyridin-3-yl)-imidazolidin-2-one]"

# The remaining lines, values behind:
row,SMILES,IC50 [nM]
1,"Cc1cc(NCc2ccncc2N2CCN(c3ccc4ncsc4c3)C2=O)n[nH]1 [Example 182A, 1-Benzothiazol-6-yl-3-{4-[(5-methyl-1H-pyrazol-3-ylamino)-methyl]-pyridin-3-yl}-imidazolidin-2-one]",27
2,"Cc1ccncc1N1CCN(c2c[nH]c3ccccc23)C1=O [Example 107A, 1-(1H-Indol-3-yl)-3-(4-methyl-pyridin-3-yl)-imidazolidin-2-one]",334
3,"Cc1cccc(N2CCN(c3cnccc3C(F)(F)F)C2=O)c1 [Example 131A, 1-m-Tolyl-3-(4-trifluoromethyl-pyridin-3-yl)-imidazolidin-2-one]",103
4,"Cc1ccncc1N1CCN(c2ccc(C#N)c(Cl)c2)C1=O [Example 112A, 2-Chloro-4-[3-(4-methyl-pyridin-3-yl)-2-oxo-imidazolidin-1-yl]-benzonitrile]",28
5,"Cc1ccncc1N1CCN(c2cc3c(Cl)nccc3s2)C1=O [Example 98A, 1-(4-chloro-thieno[3,2-c]pyridin-2-yl)-3-(4-methyl-pyridin-3-yl)-imidazolidin-2-one]",18
6,"Cc1ccncc1N1CCN(c2ccnc(N3CCCC3)c2)C1=O [Example 85A, 1-(4-Methyl-pyridin-3-yl)-3-(2-pyrrolidin-1-yl-pyridin-4-yl)-imidazolidin-2-one]",1260
7,"Cc1ccncc1N1C(=O)N(c2ccc3ncsc3c2)CC1C (stereo not shown) [Example 167A, 1-Benzothiazol-6-yl-4-methyl-3-(4-methyl-pyridin-3-yl)-imidazolidin-2-one]",38
8,"Cc1ccncc1N1C(=O)N(c2ccc3ncsc3c2)C(C)C1C (stereo not shown) [Example 175A, 1-Benzothiazol-6-yl-4,5-dimethyl-3-(4-methyl-pyridin-3-yl)-imidazolidin-2-one]",85
9,"CCc1cn(-c2ccc3ncsc3c2)c(=O)n1-c1cnccc1C [Example 168A, 1-Benzothiazol-6-yl-4-ethyl-3-(4-methyl-pyridin-3-yl)-1,3-dihydro-imidazol-2-one]",384
10,"Cc1ccncc1N1CCN(c2cnc3ccccn23)C1=O [Example 119A, 1-Imidazo[1,2-a]pyridin-3-yl-3-(4-methyl-pyridin-3-yl)-imidazolidin-2-One]",3200
11,"CN1CCC[C@H]1COc1ccncc1N1CCN(c2ccc3ncsc3c2)C1=O (stereo in doubt) [Example 181A, 1-Benzothiazol-6-yl-3-[4-(1-methyl-pyrrolidin-2-ylmethoxy)-pyridin-3-yf]-imidazolidin-2-one]",3060
12,"CCc1ccncc1N1CCN(c2ccc3ncsc3c2)C1=O [Example 159A, 1-(benzo[d]thiazol-6-yl)-3-(4-ethylpyridin-3-yl)imidazolidin-2-one]",3.4
13,"O=C1N(c2ccc3ncsc3c2)CCN1c1cnccc1CO [Example 126A, 1-Benzothiazol-6-yl-3-(4-hydroxymethyl-pyridin-3-yl)-imidazolidin-2-one]",25

# Same assay, conditions: human CYP17, substrate 0.25 μM; read-out: Lyase IC 50 Human/Rat (Human)
row,pIC50,SMILES
1,< 5.00,"Cc1ccncc1N1CCN(c2ccc3c(c2)ncn3C)C1=O [Example 116A, 1-(1-Methyl-1H-benzoimidazol-5-yl)-3-(4-methyl-pyridin-3-yl)-trifluoroacetic Acid]"
2,< 5.00,CC(=O)Nc1cc(N2CCN(c3cnccc3C)C2=O)ccn1 [Example 96A]
3,< 5.00,"CC(=O)Nc1ccc(N2CCN(c3cnccc3C)C2=O)cn1 [Example 75A, N-{5-[3-(4-Methyl-pyridin-3-yl)-2-oxo-imidazolidin-1-yl]-pyridin-2-yl}-acetamide]"

# More lines, now with the values behind:
row,SMILES,pIC50
1,"O=C1N(c2cnc3[nH]cnc3c2)CCN1c1ccc2ncsc2c1 [Example 183A, 1-Benzothiazol-6-yl-3-(3H-imidazo[4,5-b]pyridin-6-yl)-imidazolidin-2-one]",< 5.00
2,"NC(=O)c1ccncc1N1CCN(c2ccc3ncsc3c2)C1=O [Example 185A, 3-(3-Benzothiazol-6-yl-2-oxo-imidazolidin-1-yl)-isonicotinamide]",< 5.00
3,"Cc1ccc(N2CCN(c3ccc4ncsc4c3)C2=O)cn1 [Example 127A, 1-Benzothiazol-6-yl-3-(6-methyl-pyridin-3-yl)-imidazolidin-2-one]",< 5.00
4,"O=C1N(c2cnc3[nH]ccc3c2)CCN1c1ccc2ncsc2c1 [Example 187A, 1-Benzothiazol-6-yl-3-(1H-pyrrolo[2,3-b]pyridin-5-yl)-imidazolidin-2-one]",< 5.00
5,"COc1nccc2scc(N3CCN(c4cnccc4C)C3=O)c12 [Example 110A, 1-(4-Methoxy-thieno[3,2-c]pyridin-3-yl)-3-(4-methyl-pyridin-3-yl)-imidazolidin-2-one]",< 5.00
6,"O=C1N(c2ccc3ncsc3c2)CCN1c1ccccn1 [Example 191A, 1-Benzothiazol-6-yl-3-pyridin-2-yl-imidazolidin-2-one]",< 5.00
